Tested on: Escherichia coli ATCC-25922, Klebsiella pneumonia ATCC-4352, Canadida albicans ATCC-10231, Pseudomonas aeruginosa ATCC-9027, Staphylococcus aureus ATCC-6538
Test: Lawn-spray assay of AM635 disinfectant spray in SDS (Example 5)
Format: cell-based
Details: portions of the untreated area were also clear of bacterial growth
Experimental: The efficacy of 0.5-2% SDS solutions (in DiH2O)+0.1-10% Silver 1-Methyl imidazole were tested by performing a lawn-spray assay. The Silver 1-Methylimidazole Complex 635 (AM635) disinfectant sprays in SDS were prepared as described in Example 4. Briefly, a lawn of bacteria/yeast from a newly grown broth culture were inoculated onto their preferred agar media by dipping a swab into each broth, fully wetting the swab end, then swiping the swab back-and-forth from the top to the bottom of the plate, then turning the plate for a ¼ turn and re-streaking from top to bottom again. This technique ensures for total coverage of the inoculating bacteria/yeast across the face of the agar media. The dish was then opened and a paper towel placed over the top of the plate to cover only half of the surface while not touching the agar surface, so that the other half is exposed to the air. This exposed half was then treated with 2-pumps from a spray bottle containing the AM635 in SDS composition, ensuring that the exposed half of the plate was saturated by the test product. Each plate was treated using the same 2-pump criteria. All plates were then incubated “agar-down” overnight at 37° C. to allow the bacteria to fully grow (at 30° C. for yeast). […]

With CCCCCCCCCCCCOS(=O)(=O)[O-].[Na+] [SDS, Sodium Dodecyl Sulfate] the “effect on untreated area of lawn plate” value was “hypermigration effect”.
